Article PMC6271731, “Multitarget Molecular Hybrids of Cinnamic Acids” (Molecules, 2014)

Experiments:
[1] = target: T1, pancreatic bovine trypsin (Bos taurus, UniProt P00760); test: Inhibition of trypsin induced proteolysis in vitro; format: biochemical; details: bovine albumin substrate, pH 7.6, 37 °C; read-out: IC50 μM Trypsin Inh.
T1 construct: purchased Sigma Chemical, Co. (St. Louis, MO, USA)
T1 sequence (P00760 24-246): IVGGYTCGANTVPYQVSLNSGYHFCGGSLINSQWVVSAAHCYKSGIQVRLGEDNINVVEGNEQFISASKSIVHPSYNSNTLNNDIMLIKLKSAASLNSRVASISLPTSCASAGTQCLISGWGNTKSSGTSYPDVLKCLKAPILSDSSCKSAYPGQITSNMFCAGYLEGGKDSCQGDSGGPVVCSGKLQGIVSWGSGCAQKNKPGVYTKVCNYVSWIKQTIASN
Excerpt: All chemicals, solvents, chemical and biochemical reagents were of analytical grade and purchased from commercial sources (Merck, Merck KGaA, Darmstadt, Germany, Fluka Sigma-Aldrich Laborchemikalien GmbH, Hannover, Germany, Alfa Aesar, Karlsruhe, Germany and Sigma, St. Louis, MO, USA). Soybean lipoxygenase, pancreatic bovine trypsin, sodium linoleate, free radical DPPH and 2,2-azinobis-2-methyl-propanimidamine HCl (AAPH) were obtained from Sigma Chemical, Co. (St. Louis, MO, USA), carrageenin, type K, was commercially available. All starting materials were obtained from commercial sources and used without further purification.
The test was carried out according to a modified Kunitz method. Bovine albumin was used as substrate for trypsin. The reaction mixture consisted of 0.075 mg/mL trypsin (200 μL) and 780 μL of phosphate buffer pH 7.6 (including the tested compounds (20 μL in DMSO, final concentration 100 μM) preincubated at 37 °C for 20 min and then 1 mL of albumin (stock solution 6 g/100 mL in phosphate buffer 0.1 M, pH 7.6) was added and incubated at 37 °C for 30 min. After the incubation 1 mL of 5% trichloroacetic acid was added to the incubated solution to stop the enzyme’s reaction and allowed to set at room temperature for 1 h. Then the solution was filtered by filter paper and the absorption of the filtered solution was measured at 280 nm. Salicylic acid was used as a reference compound (Table 1).

[2] = system: sciatic nerve crush; test: Sciatic Functional Index after sciatic nerve crush; format: in vivo, Wistar rats
Excerpt: SFI is the current standard for measuring functional recovery following rat sciatic nerve crush. Its calculation involves the measurement of wide-ranging relationships between feet and toes of the hindlimb of recovering animals. SFI values close to −100 indicate severe damage, while SFI values close to 0 indicate normal function. The treated rats improved their walk and the relationship between feet and toes of the crushed hindlimbs starting from day 14 to day 21.
(§1) One day prior to the surgery and the behavioral testing, Wistar rats were handled by the investigators and introduced to the testing environment for a brief period of time. Rats were anesthetized with chloral hydrate 4.5% (1 mL/100 g). […] After the exposure, the nerve was crushed once for 30 s at standardized force. The muscle was reapproximated and the skin incision was closed using 6 to 0 sutures. The examination of the loss of sensory and motor function in the operated limb established the crush completeness. Digits in the operated limb were pinched with a blunt forceps. Absence of foot withdrawal and vocalization was recorded as loss of sensory and motor function. Animals were placed under a heating lamp until they recovered from the anesthesia and they returned to their home cages.
(§2) The tested solutions were freshly prepared on surgery day (day 0).
[…] The day of the surgery is considered as day 0 [36, 37, 38].
In the present study, the plantar surfaces of the hindlimbs of the rats were impregnated with ink and then the animals were allowed to walk on a paper along a corridor, leaving footprints during walking.
A wooden corridor (1 m × 8 cm) with raised sidewalls was used. Two and a half white paper strips (40 × 7.5 cm) were placed along the corridor and were fixed with adhesive tape closely together and at the base and the sidewalls of the corridor. Each rat was trained to walk steadily along the corridor without stops until it made three at least successful efforts of continuous walking. The footprints were allowed to dry and were then converted into digital images using a computer and a high resolution scanner. The image processing was done by using the ImageJ. This is an open-source image analysis software created in 1997 by Rayne Rasband (National Institute of Health), widely used in medical applications, especially neuroscience, for measuring distances and surface and plotting the data. The footprints were analyzed as described by Bain et al. in measurements were included: • (i) print length (PL): distance from the heel to the third toe, • (ii) toe spread (TS) distance from the first to the fifth toe on both sides and • (iii) intermediate toe spread (ITS) the distance between the middle of the second and fourth toe
All measurements were taken both from the experimental (EPL, ETS, EIT) and the normal (NPL, NTS, NIT) side. The formula used to calculate SFI was the following: SFI = −38.3 (EPL − NPL)/NPL + 109.5 (ETS − NTS)/NTS + 13.3 (EIT − NIT)/NIT − 8.8

[3] = system: sciatic nerve crush; test: Flat runway test after sciatic nerve crush; format: in vivo, Wistar rats; design: key: 0: No movement; 1: Mild movement; 2: Walking with mild deficit; 3: Nearly normal; details: crushed animals treated with 2a, day 1 to day 21
Description: (§3) The locomotor function recovery was examined through the flat runway test, the inclined plane runway test, the grid walking test and the Sciatic Functional Index (SFI) calculation.
as §1, §2
(§4) The animals were subjected to a locomotor testing one day before the surgery and on the 1st, 8th, 15th and 22nd day after the sciatic nerve injury. The day of the surgery is considered as day 0 [36, 37, 38].
Rats were trained to walk on a wooden board (1 m × 15 cm) for 120 s. The hindlimb movement was assessed with the scoring mentioned before.

[4] = system: sciatic nerve crush; test: Recovery of motor and sensory functions after sciatic nerve crush; format: in vivo, Wistar rats; details: adult rats, intraperitoneally after the compression of the nerve
Description: as §3, §1, §2, §4

[5] = single i.p. dose 0.01 mmol/mL/kg, 8 h after surgery

## CC(=O)Nc1ccc(OC(=O)/C=C/c2cccc(Oc3ccccc3)c2)cc1 [Compound 2a, (E)-4-Acetamidophenyl 3-(3-phenoxyphenyl)acrylate]
[1]
  IC50: 10 µM
[2]; baseline before surgery and dosing
  SFI, Day before Crash: −10.26
[2]; [5]
  SFI, Day-1: −93.3
  SFI, Day-7: −93.3
  SFI, Day-14: −35.45
  SFI, Day-21: −20.06
[3]
  Flat runway score (movement in hindlimb): 3
[4]
  recovering motor and sensory functions: effective in recovering motor and sensory functions
